Measurements from patent US20210121380A1, “Amino Acid Containing Oral Care Composition for Treating Caries By Reducing Lactic Acid Release in Oral Biofilms” (3M INNOVATIVE PROPERTIES COMPANY, priority 2018, published 2021).

Key:
[1] = system: human saliva derived microcosm biofilm; assay: Mass of biofilm (wet biomass) grown in MCM human derived saliva biofilm system; format: cell-based; conditions: read-out: Biomass [% from control]; for activity at 2.7 %: Example 1, amino acid 2.7 wt. %
Procedure: (§1) A composition was prepared by dissolving the amino acid to be tested in de-ionized water in the given amount.
(§2) Biofilms were grown in a MCM (mucine containing medium plus 1% sucrose) human derived saliva biofilm system.
(§3) A general procedure is summarized below: • 1. Four-hour incubation of bovine sample disks with saliva-mcm (mucine containing medium plus 1% sucrose) at 37° C. • 2. Fresh medium (MCM with different amino acids) for 2-hour incubation at 37° C. • 3. Fresh medium (MCM with different amino acids) for storage over night at 37° C. • 4. Second Day: Fresh medium (MCM with different amino acids) after 22 and 24 hours. • 5. Samples were taken after 26 hours biofilm growth for measurements of lactic acid release and biomass evaluation.
The mass of biofilm was determined as follows: Filter papers are put into 1.5 ml-reaction tubes and were labelled and weighted. The biofilm, that was grown on the enamel disks is carefully wiped off with filter paper. The filter paper containing the wet biofilms were placed back into the respective reaction tube and re-weighted. The wet biomass is calculated from the difference in weight.
(§4) In this experiment, the MCM human derived saliva biofilm system was used. The biofilms were grown for 26 hours in continuous presence of sucrose and different amino acids.

[2] = system: human saliva derived microcosm biofilm; assay: Lactic acid release of biofilm grown in MCM human derived saliva biofilm system (LDH-NAD-PMS-MTT enzyme assay); format: cell-based, lactic acid producing bacteria (human derived saliva); conditions: for effectiveness for reducing the lactic-acid release of bacteria in a biofilm (in words): reduction by more than 40% vs control considered effective; for activity at 2.7 %: amino acid 2.7 wt. %
Procedure: as §1, §2, §3
To determine the activity of the grown biofilm, the production of lactic acid in the supernatant (0.75 ml PBS-solution with 5% sucrose per each sample disc) is measured by using the Lactic acid dehydrogenase (LDH)—Nicotinamid-adenin-dinukleotid (NAD)—Phenazine Methosulphate (PMS)—Thiazolyl blue tetrazolium bromide (MTT)—enzyme assay. To guarantee that only freshly produced lactic acid is determined, the samples are washed (in three steps, each lasting 30 sec) in 1.5 ml PBS-solution. The production of lactic acid is evaluated by measuring the lactic acid amount at given points for 30 min. The determination points are: 0 min 15 min and 30 min. For each reading point a sample of 50 μl is taken out of each well. The lactic acid amount at each reading point is determined by using the enzyme assay described above. Lactic acid amount is calculated according to the lactic acid calibration curve.
as §4

[3] = Homo sapiens, Example 1, amino acid 8.0 wt. %, 26 h biofilm growth, continuous presence of sucrose and amino acid, read-out: Lactic Acid Release after 30 min [% from control]
[4] = 26 h, Example 1, amino acid 8.0 wt. %, 26 h biofilm growth
[5] = Example 1, amino acid 4.0 wt. %, 26 h biofilm growth
[6] = Homo sapiens, Example 1, amino acid 4.0 wt. %, 26 h biofilm growth, continuous presence of sucrose and amino acid, read-out: Lactic Acid Release after 30 min [% from control]
[7] = Homo sapiens, Example 1, 26 h biofilm growth, continuous presence of sucrose and amino acid, read-out: Lactic Acid Release after 30 min [% from control]

## N[C@@H](CCC(=O)O)C(=O)O [Glutamic acid, reference compound]
[1]; Example 1, amino acid 0.215 wt. %, 26 h biofilm growth
  activity at 0.215 %: 80.2%
[2]; Homo sapiens, Example 1, amino acid 0.215 wt. %, 26 h biofilm growth, continuous presence of sucrose and amino acid, read-out: Lactic Acid Release after 30 min [% from control]
  activity at 0.215 %: 90.4%

## NC(=O)C[C@H](N)C(=O)O [Asparagine, reference compound]
[1]; Example 1, amino acid 0.5 wt. %, 26 h biofilm growth
  activity at 0.5 %: 102%
[2]; Homo sapiens, Example 1, amino acid 0.5 wt. %, 26 h biofilm growth, continuous presence of sucrose and amino acid, read-out: Lactic Acid Release after 30 min [% from control]
  activity at 0.5 %: 94.7%

## C[C@@H](O)[C@H](N)C(=O)O [Threonine]
[1]; Example 1, amino acid 8.0 wt. %, 26 h biofilm growth
  activity at 8 %: 190%
[2]; [3]
  activity at 8 %: 54.6%
[2]
  effectiveness for reducing the lactic-acid release of bacteria in a biofilm (in words): useful

## NCC(=O)O [Glycine]
[1]; [4]
  activity at 8 %: 77.2%
[1]; 26 h, Example 2, glycine 0.5 wt. %
  activity at 0.5 %: 143%
[1]; 26 h, Example 2, glycine 1.0 wt. %
  activity at 1 %: 146%
[1]; 26 h, Example 2, glycine 2.0 wt. %
  activity at 2 %: 96.7%
[1]; 26 h, Example 2, glycine 4.0 wt. %
  activity at 4 %: 56.2%
[1]; 26 h, Example 2, glycine 8.0 wt. %
  activity at 8 %: 42.2%
[2]; Homo sapiens, 0.5 h, Example 2, glycine 0.5 wt. %, continuous presence with sucrose, read-out: Lactic Acid Release after 30 min [% from control]
  activity at 0.5 %: 97.5%
[2]; Homo sapiens, 0.5 h, Example 2, glycine 1.0 wt. %, continuous presence with sucrose, read-out: Lactic Acid Release after 30 min [% from control]
  activity at 1 %: 51.6%
[2]; Homo sapiens, 0.5 h, Example 2, glycine 2.0 wt. %, continuous presence with sucrose, read-out: Lactic Acid Release after 30 min [% from control]
  activity at 2 %: 32.3%
[2]; Homo sapiens, 0.5 h, Example 2, glycine 4.0 wt. %, continuous presence with sucrose, read-out: Lactic Acid Release after 30 min [% from control]
  activity at 4 %: 1.6%
[2]; Homo sapiens, 0.5 h, Example 2, glycine 8.0 wt. %, continuous presence with sucrose, read-out: Lactic Acid Release after 30 min [% from control]
  activity at 8 %: 5.6%
[2]; [3]
  activity at 8 %: 5.7%
[2]
  effectiveness for reducing the lactic-acid release of bacteria in a biofilm (in words): useful

## NCCCC[C@H](N)C(=O)O [Lysine]
[1]; 26 h
  activity at 8 %: 87.8%
[2]
  effectiveness for reducing the lactic-acid release of bacteria in a biofilm (in words): useful

## NC(=O)CC[C@H](N)C(=O)O [glutamine, reference compound]
[2]
  effectiveness for reducing the lactic-acid release of bacteria in a biofilm (in words): not effective

## N[C@@H](CC(=O)O)C(=O)O [Aspartic acid, reference compound]
[1]; Example 1, amino acid 0.1125 wt. %, 26 h biofilm growth
  activity at 0.1125 %: 82.1%
[2]; Homo sapiens, Example 1, amino acid 0.1125 wt. %, 26 h biofilm growth, continuous presence of sucrose and amino acid, read-out: Lactic Acid Release after 30 min [% from control]
  activity at 0.1125 %: 101%
[2]
  effectiveness for reducing the lactic-acid release of bacteria in a biofilm (in words): not effective

## CC(C)[C@H](N)C(=O)O [Valine]
[1]; Example 1, amino acid 5.0 wt. %, 26 h biofilm growth
  activity at 5 %: 209%
[2]; Homo sapiens, Example 1, amino acid 5.0 wt. %, 26 h biofilm growth, continuous presence of sucrose and amino acid, read-out: Lactic Acid Release after 30 min [% from control]
  activity at 5 %: 42.1%
[2]
  effectiveness for reducing the lactic-acid release of bacteria in a biofilm (in words): useful

## N[C@@H](Cc1c[nH]c2ccccc12)C(=O)O [Tryptophan]
[1]; 26 h
  activity at 0.25 %: 181%
[2]
  effectiveness for reducing the lactic-acid release of bacteria in a biofilm (in words): useful

## O=C(O)[C@@H]1CCCN1 [Proline, reference compound]
[1]; [4]
  activity at 8 %: 110%
[2]; [3]
  activity at 8 %: 74.7%
[2]
  effectiveness for reducing the lactic-acid release of bacteria in a biofilm (in words): not effective

## N[C@@H](Cc1c[nH]cn1)C(=O)O [Histidine, reference compound]
[1]; Example 1, amino acid 3.8 wt. %, 26 h biofilm growth
  activity at 3.8 %: 106%
[2]; Homo sapiens, Example 1, amino acid 3.8 wt. %, 26 h biofilm growth, continuous presence of sucrose and amino acid, read-out: Lactic Acid Release after 30 min [% from control]
  activity at 3.8 %: 150%
[2]
  effectiveness for reducing the lactic-acid release of bacteria in a biofilm (in words): not effective

## C[C@H](N)C(=O)O [Alanine, reference compound]
[1]; [5]
  activity at 4 %: 141%
[2]; [6]
  activity at 4 %: 99.7%

## N[C@@H](CS)C(=O)O [Cysteine, reference compound]
[1]; Example 1, amino acid 0.625 wt. %, 26 h biofilm growth
  activity at 0.625 %: 56.2%
[2]; Homo sapiens, Example 1, amino acid 0.625 wt. %, 26 h biofilm growth, continuous presence of sucrose and amino acid, read-out: Lactic Acid Release after 30 min [% from control]
  activity at 0.625 %: 85.8%

## N[C@@H](Cc1ccccc1)C(=O)O [Phenylalanine]
[1]; 26 h, Example 3, phenylalanine 0.5 wt. %
  activity at 0.5 %: 181%
[1]; 26 h, Example 3, phenylalanine 1.0 wt. %
  activity at 1 %: 124%
[1]; 26 h, Example 3, phenylalanine 1.5 wt. %
  activity at 1.5 %: 92.7%
[1]; 26 h, Example 3, phenylalanine 2.0 wt. %
  activity at 2 %: 96.5%
[1]; 26 h, Example 3, phenylalanine 2.5 wt. %
  activity at 2.5 %: 66.9%
[1]; 26 h biofilm growth
  activity at 2.7 %: 136%
[2]; Homo sapiens, 0.5 h, Example 3, phenylalanine 0.5 wt. %, continuous presence with sucrose, read-out: Lactic Acid Release after 30 min [% from control]
  activity at 0.5 %: 45.9%
[2]; Homo sapiens, 0.5 h, Example 3, phenylalanine 1.0 wt. %, continuous presence with sucrose, read-out: Lactic Acid Release after 30 min [% from control]
  activity at 1 %: 32.1%
[2]; Homo sapiens, 0.5 h, Example 3, phenylalanine 1.5 wt. %, continuous presence with sucrose, read-out: Lactic Acid Release after 30 min [% from control]
  activity at 1.5 %: 16.7%
[2]; Homo sapiens, 0.5 h, Example 3, phenylalanine 2.0 wt. %, continuous presence with sucrose, read-out: Lactic Acid Release after 30 min [% from control]
  activity at 2 %: 12.1%
[2]; Homo sapiens, 0.5 h, Example 3, phenylalanine 2.5 wt. %, continuous presence with sucrose, read-out: Lactic Acid Release after 30 min [% from control]
  activity at 2.5 %: 3.5%
[2]; [7]
  activity at 2.7 %: 8.6%
[2]
  effectiveness for reducing the lactic-acid release of bacteria in a biofilm (in words): useful

## CC[C@H](C)[C@H](N)C(=O)O [Isoleucine]
[1]; [5]
  activity at 4 %: 104%
[2]; [6]
  activity at 4 %: 21.9%
[2]
  effectiveness for reducing the lactic-acid release of bacteria in a biofilm (in words): useful

## N=C(N)NCCC[C@H](N)C(=O)O [Arginine, reference compound]
[1]; 26 h
  activity at 8 %: 247%
[2]
  effectiveness for reducing the lactic-acid release of bacteria in a biofilm (in words): not effective

## CC(C)C[C@H](N)C(=O)O [Leucine]
[1]; 26 h biofilm growth
  activity at 2.7 %: 85.9%
[2]; [7]
  activity at 2.7 %: 36.7%
[2]
  effectiveness for reducing the lactic-acid release of bacteria in a biofilm (in words): useful

## CSCC[C@H](N)C(=O)O [Methionine]
[1]; 26 h, Example 1, amino acid 4.8 wt. %, 26 h biofilm growth
  activity at 4.8 %: 84.9%
[2]; Homo sapiens, Example 1, amino acid 4.8 wt. %, 26 h biofilm growth, continuous presence of sucrose and amino acid, read-out: Lactic Acid Release after 30 min [% from control]
  activity at 4.8 %: 26.9%
[2]
  effectiveness for reducing the lactic-acid release of bacteria in a biofilm (in words): useful

## N[C@@H](Cc1ccc(O)cc1)C(=O)O [Tyrosine, reference compound]
[1]; Example 1, amino acid 0.0095 wt. %, 26 h biofilm growth
  activity at 0.0095 %: 95.3%
[2]; Homo sapiens, Example 1, amino acid 0.0095 wt. %, 26 h biofilm growth, continuous presence of sucrose and amino acid, read-out: Lactic Acid Release after 30 min [% from control]
  activity at 0.0095 %: 112%
[2]
  effectiveness for reducing the lactic-acid release of bacteria in a biofilm (in words): not effective

## N[C@@H](CO)C(=O)O [Serine]
[1]; 26 h biofilm growth
  activity at 2.7 %: 84.6%
[2]; [7]
  activity at 2.7 %: 11.8%
[2]
  effectiveness for reducing the lactic-acid release of bacteria in a biofilm (in words): useful
